From PubChem BioAssay AID651759 (The Scripps Research Institute Molecular Screening Center, 2012)
pIC50: −log10 of the molar value. Several values for one entry are separate records, joined by “and”; a condition that tells them apart may be missing. Equal entries are not always repeated. Activity calls are given as the source filed them. The rule behind the calls is not given here.

target: Perilipin-5 (Homo sapiens) + 1-acylglycerol-3-phosphate O-acyltransferase ABHD5 (Homo sapiens) (UniProt Q00G26+Q8WTS1); test: blockers of ABHD5 binding to perilipin-5 – cell lysate, luminescence, proteins expressed in HEK293T, late-stage follow-up (AID 651759); conditions: ABHD5-PLIN5 interaction
Sequence (Q00G26 whole entry, looked up): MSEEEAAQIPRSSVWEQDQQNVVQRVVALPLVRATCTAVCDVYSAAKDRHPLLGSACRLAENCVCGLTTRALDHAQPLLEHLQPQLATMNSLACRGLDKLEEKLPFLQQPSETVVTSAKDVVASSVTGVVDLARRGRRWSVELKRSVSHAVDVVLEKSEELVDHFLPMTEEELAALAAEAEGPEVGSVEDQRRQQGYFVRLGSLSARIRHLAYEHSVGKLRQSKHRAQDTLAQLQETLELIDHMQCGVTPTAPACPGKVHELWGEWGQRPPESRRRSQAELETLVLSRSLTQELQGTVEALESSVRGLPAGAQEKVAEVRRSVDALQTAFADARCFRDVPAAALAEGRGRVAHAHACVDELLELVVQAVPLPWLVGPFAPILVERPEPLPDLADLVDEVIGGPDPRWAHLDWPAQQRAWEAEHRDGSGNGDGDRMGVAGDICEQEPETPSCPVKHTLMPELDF
Sequence (Q8WTS1 whole entry, looked up): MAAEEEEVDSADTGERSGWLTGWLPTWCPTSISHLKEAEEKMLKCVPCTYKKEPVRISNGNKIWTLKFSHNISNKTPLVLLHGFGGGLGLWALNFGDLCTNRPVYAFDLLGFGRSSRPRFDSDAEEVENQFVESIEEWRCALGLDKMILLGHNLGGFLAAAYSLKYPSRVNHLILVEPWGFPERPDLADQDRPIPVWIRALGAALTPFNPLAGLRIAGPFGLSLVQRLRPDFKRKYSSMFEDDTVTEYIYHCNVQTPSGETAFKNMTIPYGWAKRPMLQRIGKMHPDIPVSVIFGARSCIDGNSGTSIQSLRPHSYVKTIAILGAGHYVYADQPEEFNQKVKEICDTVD

pIC50 | IC50 | Compound
5.53 and 5.24 | – | Cc1ccc2c(CC(=O)N3CCN(S(=O)(=O)c4ccc5c(c4)OCCO5)CC3)coc2c1
5.86 | – | CCN(CC)CCC(C)OC(c1ccccc1)c1ccccc1 (stereo unspecified)
5.21 and 5.16 | – | NC(=NCCCCCCN=C(N)/N=C(\N)Nc1ccc(Cl)cc1)/N=C(\N)Nc1ccc(Cl)cc1
5.41 | – | Cc1cc(C)c2nc(NNC(=O)c3ccc(S(=O)(=O)N4CCCC(C)C4)cc3)sc2c1 (stereo unspecified)
5.90 | – | CCN(CC)CCOCCOC(=O)C1(c2ccccc2)CCCC1
5.05 | – | CC1CCN(S(=O)(=O)c2ccc(NC(=O)Cc3cccs3)cc2)CC1
– | inactive | COc1ccc(C)c2sc(N(CCN(C)C)C(=O)/C=C/c3cccs3)nc12
5.88 | – | CCN(CC)CCOc1ccc(/C(=C(/Cl)c2ccccc2)c2ccccc2)cc1
– | inactive | CN(C)CCCN(C(=O)CCc1ccccc1)c1nc2ccc(Cl)cc2s1
– | inactive | COc1ccc(NC(=S)N(CCCN2CCCC2)Cc2cccn2Cc2ccc(Cl)cc2)cc1Cl
5.35 | – | C=C[C@]1(C)C[C@@H](OC(=O)CSCCN(CC)CC)[C@]2(C)C(C)CC[C@]3(CCC(=O)[C@H]32)[C@@H](C)[C@@H]1O (stereo partly specified)
5.05 | – | CC1Sc2ccc(S(=O)(=O)N3CCC(C(=O)NCc4ccc(Cl)cc4)CC3)cc2NC1=O (stereo unspecified)
– | inactive | CCN(CC)CCNC(=O)c1ccc(NC(=O)c2cn(-c3ccccc3)nc2-c2cccs2)cc1
5.43 | – | CCCCOC(=O)Nc1cc(C(=O)OC)ccc1C(=O)OC
– | inactive | CN(C)CCCN(C(=O)CCc1ccccc1)c1nc2ccc(Br)cc2s1
5.84 | – | Cc1ccc2nc3cc([N+](=O)[O-])cc([N+](=O)[O-])c3cc2c1
5.88 | – | O=c1[nH]c(C2CCN(S(=O)(=O)c3ccc(S(=O)(=O)NC4CC4)cc3)CC2)nc2c1nnn2Cc1ccc(F)cc1
5.37 | – | CC1=CC(C)(C)Nc2ccc(OC(=O)C(C)N3C(=O)c4ccccc4C3=O)cc21 (stereo unspecified)
5.03 | – | COc1cc2c(cc1OC)C(C)N(CCc1ccc(Cl)cc1)CC2 (stereo unspecified)
5.89 | – | CCOc1cc(N)c(Cl)cc1C(=O)NCC1CN(Cc2ccc(F)cc2)CCO1 (stereo unspecified)
– | > 39.8 µM (inactive) | COCCN(CCOC)c1nc(N)c2c(N)nc3c(c2c1C#N)CC(=O)N3Cc1ccc(Cl)cc1
5.65 | – | CCOC(=O)c1c(NC(C)=O)sc2c1CCC(C=O)=C2Sc1ccccc1
– | inactive | FC(F)(F)c1cccc(NC(=S)N(CCCN2CCCC2)Cc2cccn2Cc2ccc(Cl)cc2)c1

pIC50 | IC50 | Compound
– | > 39.8 µM (inactive) | CN(C)CCOC1(Cc2ccc(F)cc2)CCC(C(C)(C)C)CC1 (stereo unspecified)
5.21 | – | O=C(/C(=C/O)N=Nc1ccc(Cl)cc1)c1ccncc1
– | inactive | O=c1[nH]c(C2CCN(S(=O)(=O)c3ccc(F)cc3)CC2)nc2c1nnn2Cc1ccc2c(c1)OCCO2
– | > 39.8 µM (inactive) | CN(C)CCN(Cc1ccco1)c1ccccn1
5.32 | – | CC(=O)Cc1cc(O)c2ccccc2c1OC(=O)c1ccc(Br)cc1
5.54 | – | CCN(CC)CCN(CC(=O)Nc1c(C)cc(C)cc1C)C(=O)c1ccccc1
5.45 | – | CC(=O)Cc1cc(O)c2ccccc2c1OC(=O)c1ccccc1
– | > 39.8 µM (inactive) | COc1cc(C)c2sc3ccccc3c(=O)c2c1NCCN(C)C
6.00 | – | CC(C)c1ccc(N2C=Nc3ccc(C(C)C)cc3C2)cc1
5.54 | – | CC(CCc1ccco1)NC(=O)CCc1nnc2ccc(NCc3ccccc3Cl)nn12 (stereo unspecified)
5.15 | – | Cc1cc(C)c(NC(=O)CN2CCN3CCCC3C2)c(C)c1 (stereo unspecified)
5.67 | – | COc1cc(OC)cc(C(=O)NC(=S)N(Cc2ccccc2)C(C)C)c1
– | > 39.8 µM (inactive) | CN1CCC(=C2c3ccccc3CC(=O)c3sccc32)CC1
5.25 | – | CCCNC(=O)Nc1ccc2c(c1)N(C)C(=O)c1ccccc1S2
– | > 13.3 µM (inactive) | COc1ccccc1-c1cc(C(=O)NC2CCN(C)CC2)c2ccc(Cl)c(C)c2n1
– | > 39.8 µM (inactive) | CC(=O)Oc1ccc(C23c4ccccc4C2(OC(C)=O)c2cc(OC(C)=O)ccc23)cc1 (stereo unspecified)
5.10 | – | CC1CCN(S(=O)(=O)c2ccc(NC(=O)Cc3ccccc3)cc2)CC1
– | > 39.8 µM (inactive) | O=C(C[n+]1cccc(CNC(=O)c2ccc(OC(F)F)cc2)c1)Nc1cccc(C(F)(F)F)c1
5.51 | – | CCCCNC(=O)Nc1ccc2c(c1)N(C)C(=O)c1ccccc1S2
– | inactive | CC(=O)Nc1ccc(S(=O)(=O)N2c3ccc(F)cc3CCC2C)cc1 (stereo unspecified)
5.04 | – | Cc1cc(C)c(NC(=O)C[N+](C)(C)CC(O)COc2cccc3ccccc23)c(C)c1 (stereo unspecified)
5.35 | – | CCOC(=O)c1c(NC(=O)/C=C/C(=O)O)sc(C)c1-c1ccc(C(C)(C)C)cc1
5.65 | – | Cc1nc2c(o1)CCc1ccccc1C2N1CCN(C)CC1 (stereo unspecified)
